Laboratory results taken from US20090305271A1, “In Vitro Assay Based on Camp Levels Modulated by Gi-Coupled Receptors” (priority 2006, published 2009).

Tests used:
Assay type in all cases: cell-based
[1] = molecular target: T1, human dopamine D4.4 receptor (Homo sapiens, UniProt P21917); experiment: cAMP assay with NKH477 or forskolin as activator, D4.4 receptor stably expressed in CHO-K1; conditions: D4.4 in CHO-K1, 1 μM of agonist (dopamine)
T1 construct: expressed in transfected cells; host or cells: CHO-K1
T1 sequence (P21917 1-419): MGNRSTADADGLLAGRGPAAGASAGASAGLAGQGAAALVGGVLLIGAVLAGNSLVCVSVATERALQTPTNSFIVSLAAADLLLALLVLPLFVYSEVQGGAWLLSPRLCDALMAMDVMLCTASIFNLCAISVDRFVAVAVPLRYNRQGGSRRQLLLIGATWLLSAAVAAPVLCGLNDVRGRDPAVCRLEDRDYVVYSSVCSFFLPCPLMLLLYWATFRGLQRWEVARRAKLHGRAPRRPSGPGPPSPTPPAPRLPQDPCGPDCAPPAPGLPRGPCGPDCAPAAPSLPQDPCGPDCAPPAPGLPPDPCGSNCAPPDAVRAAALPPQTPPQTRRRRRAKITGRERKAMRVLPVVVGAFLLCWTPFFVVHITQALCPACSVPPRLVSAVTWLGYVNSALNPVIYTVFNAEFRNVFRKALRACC
Experimental: cAMP measurements on CHO-K1 cells that stably expressed the human muscarinic M4 or the human dopamine D4.4 receptor were performed via the HTRF (homogeneous time-resolved fluorescence) technology (CIS Bio, France). The principle of these cAMP assays is based on a competition between cAMP produced by cells and cAMP-XL665 conjugate for the binding with monoclonal anti-cAMP-cryptate conjugate. The HTRF) conjugates are prepared in lysis buffer so that the cell lysis and the detection step can be performed simultaneously.
(§1) To measure the production of cAMP from cells, cells were harvested and resuspended with HBSS Buffer. Varying concentrations of cells were plated in a 96-well plate. Serial dilutions of agonists (Dopamine or Epinephrine) were added and incubated for 10′ at room temperature with the cells. Forskolin or NKH477 were added, and the plate was incubated at 37° C. for 10 minutes. After cell induction, the assay reagents were added as outlined in the assay procedure.
For the D4—CHO K1 cell line (D4 stably transfected in CHO K1 host cell line) 0.7 μM of NKH477 and Forskolin were used with or without 1 μM of Dopamine
(§2) c) CHO-K1 cells expressing D4.4, alpha2c H3 and D2S receptors were exposed to increasing concentrations of ligands, respectively dopamine, epinephrine, histamine and dopamine ranging from 0.01 nM to 10 μM in the presence of 30 μM forskolin or 10 μM NKH-477.

[2] = molecular target: T2, alpha 2c receptor (Homo sapiens, UniProt P18825); experiment: cAMP assay with NKH477 or forskolin as activator, alpha 2c receptor stably expressed in CHO-S; conditions: alpha 2c in CHO-S, 1 μM of agonist (epinephrine)
T2 construct: expressed in transfected cells; host or cells: CHO-S
T2 sequence (P18825 1-462): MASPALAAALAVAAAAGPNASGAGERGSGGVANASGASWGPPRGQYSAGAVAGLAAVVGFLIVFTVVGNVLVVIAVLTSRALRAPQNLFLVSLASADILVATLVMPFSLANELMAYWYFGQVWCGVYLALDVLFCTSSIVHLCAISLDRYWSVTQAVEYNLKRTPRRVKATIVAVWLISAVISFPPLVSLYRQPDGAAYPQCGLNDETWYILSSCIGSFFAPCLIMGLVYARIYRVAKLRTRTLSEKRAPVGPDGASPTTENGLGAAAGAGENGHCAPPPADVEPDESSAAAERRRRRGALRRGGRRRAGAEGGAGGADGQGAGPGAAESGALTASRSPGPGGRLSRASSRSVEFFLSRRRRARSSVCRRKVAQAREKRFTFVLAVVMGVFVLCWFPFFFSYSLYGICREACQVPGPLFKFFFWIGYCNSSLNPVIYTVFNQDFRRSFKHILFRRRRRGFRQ
Experimental: as §1
For the alpha2c—CHO S cell line (alpha 2c stably transfected in CHO S host cell line) was incubate with 5 μM of NKH477 and Forskolin 10′ at 37° C. without or with 1 μM of Epinephrine
as §2

[3] = tested on: adenylyl cyclase isoform V and/or VI; experiment: cAMP production with NKH-477 instead of forskolin as in vitro activator of cAMP formation; conditions: cells expressing the adenylyl cyclase isoform V and/or VI
[4] = molecular target: T3, human muscarinic M4 (Homo sapiens, UniProt P08173); experiment: cAMP HTRF functional assay, forskolin-induced cAMP production in M4/CHO/miRNA cell line
T3 construct: expressed in transfected cells; host or cells: CHO-K1 (M4/CHO and M4/CHO/miRNA cell lines)
T3 sequence (P08173 1-479): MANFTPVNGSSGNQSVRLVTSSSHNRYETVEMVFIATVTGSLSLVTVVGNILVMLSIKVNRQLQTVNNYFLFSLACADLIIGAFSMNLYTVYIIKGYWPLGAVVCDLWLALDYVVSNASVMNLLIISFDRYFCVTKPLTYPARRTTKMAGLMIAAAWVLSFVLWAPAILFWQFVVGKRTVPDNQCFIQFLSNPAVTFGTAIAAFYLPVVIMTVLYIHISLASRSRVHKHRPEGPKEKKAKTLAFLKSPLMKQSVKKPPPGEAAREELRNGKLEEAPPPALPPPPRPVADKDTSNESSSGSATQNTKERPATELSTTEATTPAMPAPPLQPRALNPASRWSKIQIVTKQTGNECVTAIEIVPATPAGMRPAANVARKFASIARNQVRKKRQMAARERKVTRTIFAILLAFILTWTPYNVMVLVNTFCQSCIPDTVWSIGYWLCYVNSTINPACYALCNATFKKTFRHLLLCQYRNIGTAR
Experimental: CHO-K1 stably expressing the human muscarinic M4 or the human dopamine D4.4 receptor were cultured under standard conditions. Cells were harvested by EDTA, washed once in phosphate buffered saline and resuspended in assay buffer (HBSS containing 0.1% glucose and 0.5 mM IBMX). The cells were dispensed into a black 96 half-well plate at a cell density of 10,000-15,000 cells. After incubation for 30 min at room temperature or at 37° C., an equal volume of assay buffer containing forskolin, then acetylcholine or quimpirole was added to the cells. After incubation for 30 min at room temperature or 37° C., cAMP detection was performed following the protocol described above. The plate was incubated for one more hour at room temperature and then measured on a RUBYstar^a (BMG Labtechnologies) time-resolved fluorescence reader. […]

Row | Compound | enhancement of cAMP production inhibition with NKH477 instead of forskolin [1] | signal window compared with Forskolin [1] | enhancement of cAMP production inhibition with NKH477 instead of forskolin [2] | signal window compared with Forskolin [2] | increase of the production of cAMP instead of forskolin [3] | inhibition at 1 µM ([4]; 1 μM, M4/CHO/miRNA cell line, read-out: inhibition of Forskolin stimulated cAMP production) [%] | increase of inhibitory potency on Forskolin induced cAMP production compared to wild CHO cells expressing M4 receptor ([4]; M4/CHO/miRNA versus M4/CHO)
1 | C=C[C@@]1(C)CC(=O)[C@]2(O)[C@@]3(C)[C@@H](O)CCC(C)(C)[C@@H]3[C@H](OC(=O)CCN(C)C)[C@H](OC(C)=O)[C@@]2(C)O1.Cl [NKH477, 6-(3-dimethylaminopropionyl) forskolin hydrochloride] | up to 20% | greater signal window than Forskolin | up to 20% | greater signal window than Forskolin | up to 20% |  | 
2 | O=C1CCCN1CC#CCN1CCCC1 [Oxotremorine] |  |  |  |  |  | > 85 | 25-30%
